IC50 data for three compounds are collected here from ChEMBL document CHEMBL2073835, “Apical uptake of organic cations by human intestinal Caco-2 cells: putative involvement of ASF transporters” (Naunyn Schmiedebergs Arch Pharmacol, 2001).

For the assay, the target named is T1, Solute carrier family 22 member 3 (Homo sapiens, UniProt O75751).
T1 sequence (O75751 whole entry): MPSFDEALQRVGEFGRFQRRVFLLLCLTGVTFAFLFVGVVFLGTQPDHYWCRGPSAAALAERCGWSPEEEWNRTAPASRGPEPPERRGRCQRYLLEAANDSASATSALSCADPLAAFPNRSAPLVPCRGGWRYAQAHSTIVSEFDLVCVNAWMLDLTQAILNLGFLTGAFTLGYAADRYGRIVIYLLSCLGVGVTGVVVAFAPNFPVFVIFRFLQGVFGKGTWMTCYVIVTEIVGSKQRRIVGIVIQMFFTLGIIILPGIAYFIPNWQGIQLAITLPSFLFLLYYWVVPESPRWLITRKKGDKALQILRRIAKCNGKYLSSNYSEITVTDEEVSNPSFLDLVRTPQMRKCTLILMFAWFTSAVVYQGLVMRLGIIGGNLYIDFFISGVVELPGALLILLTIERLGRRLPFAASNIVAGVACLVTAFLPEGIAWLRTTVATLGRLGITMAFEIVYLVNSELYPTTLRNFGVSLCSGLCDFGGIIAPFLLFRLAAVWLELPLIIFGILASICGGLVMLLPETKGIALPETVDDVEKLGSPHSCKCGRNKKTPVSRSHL
Kind of assay: TP_TRANSPORTER: inhibition of MPP+ uptake (MPP+: 0.2 uM) in OCT3-expressing HEK293 cells. In kind it is functional, cell-based.
As to `CC[N+](CC)(CC)CC` [TETRYLAMMONIUM], the midpoint of inhibition, the IC50, lay at 10300 µM.

For `Clc1cccc(Cl)c1N=C1NCCN1` [CLONIDINE], the concentration for half-maximal inhibition (IC50) (in general, the concentration at which inhibition is half-maximal) was determined as 79.3 µM. This IC50 is about 130-fold lower than that of the compound before.

Take `CC[n+]1c(CC2C=C(C)N=C(c3ccccc3)N2C)ccc2ccccc21` (stereo not drawn) [Cyanine-863]: the IC50 worked out at 1.76 µM.
